Patent US11000574B2, “Hyaluronic acid containing compositions for prevention of the formation of post-surgical scars and post-surgical adhesions” (PERGAMUM AB, priority 2009, dated 2021)
Bridge positions count the residues as written; N and C are the ends. Peptide text beside a SMILES is read from it.

What was measured:
[1] = test system: post-surgical intra-abdominal adhesions; assay: Sidewall defect-cecum abrasion model in rat (post-surgical adhesion prevention); assay type: in vivo, Sprague-Dawley rats; details: for adhesion formation compared with control group: rat, 6 days after surgery
Procedure: Female Sprague-Dawley rats (200-250 g, Charles River Laboratories, Sulzfeldt, Germany) were kept in a 12 hours light-dark cycle and were cared for in accordance with regulations for the protection of laboratory animals. The study was performed after prior approval from the local ethical committee.
Cecum abrasion and excision of the abdominal wall were performed to induce de novo adhesions as described previously (Harris et al. 1995. Analysis of the kinetics of peritoneal adhesion formation in the rat and evaluation of potential antiadhesive agents. Surgery 117, 663-669). Briefly, the rats were anaesthetized with isoflurane (Isoba®vet, Shering-Plough Animal Health, Farum, Denmark) and buprenorfin (48 microg/kg, Temgesic, Shering-Plough, Brussels, Belgium) was given as post-operative pain reliever. A 5-cm-long midline incision of the abdomen was performed and a rectangle full thickness injury (5 mm×25 mm) was made on the peritoneal wall through both the parietal peritoneum and the muscular fascia. Also, an area of the serous membrane on the both sides of the cecum, approximately 10 mm×15 mm, was gently rubbed using cotton gauze until petechial hemorrhages appeared. The rats were randomized to untreated control group or treated groups. Excessive blood from the injury was removed and the test substance was applied over the abraded areas using a syringe. The laparotomy wound was closed with a continuous suture and the skin was closed with metal clips (Appose ULC35W, TycoHealthcare Group LP, Norwalk, Conn., US). […] The abdomen was opened and the adhesions were scored by an evaluator blinded to the treatment. The incidence of adhesions between abdominal incision and the abraded cecum was quantified as a percentage of animals developing wall to wall adhesions connecting these injuries, in each group. […] Finally, the percentage of rats free from any abdominal adhesions was assessed in each group. Any possible signs of peritoneal inflammation (erythema and/or edema) or disrupted wound healing were recorded in connection to the necropsies. […]

[2] = In vitro release of PXL01 from sodium hyaluronate gel; assay type: physicochemical; details: 6 mg/ml PXL01 in 1.5% sodium hyaluronate, 37° C., PBS pH 7.4, within 1 hour
Procedure: (§1) PXL01 dissolved in sodium chloride solution was added to 2.5% sodium hyaluronate solution at a volume ratio of 2/5 PXL01 solution and 3/5 sodium hyaluronate solution, to obtain 1.5 or 6 mg/ml PXL01 in 1.5% sodium hyaluronate. The solutions were homogenized by drawing the mixtures several times through 2.1 mm diameter needles.
0.25 ml of the formulated product was placed into the well of the tissue culture plate (24-Flat Well Tissue Culture Plate, Techno Plastic Products AG), resulting in a thin film of approximately 1.3 mm. The plates were placed into thermostat (37° C.) for 1 h to allow the product to reach the temperature of 37° C. 0.5 ml of the release medium (PBS, pH 7.4) re-equilibrated at 37° C. was carefully layered over the surface of the gel and the tissue culture plates were transferred into a thermostatic shaker (60 rpm, 37° C.). At predetermined time intervals, 10 microl aliquots of the aqueous solution were withdrawn from the release media. The concentration of PXL01 released was monitored at wavelength of 230 nm using a spectrophotometric measurement. Because the measurement of absorbance at 230 nm could detect the peptide as well as dissolved sodium hyaluronate in the release medium, a control release medium was used which has the same amount of sodium hyaluronate without any PXL01 as that of sodium hyaluronate with the drug.

[3] = Solubility and stability of PXL01 in sodium hyaluronate; assay type: physicochemical
Procedure: as §1
PXL01 concentration and homogeneity in sodium hyaluronate were determined by high performance liquid chromatography with UV detector (Agilent model 1100) at 220 nm. The analytical column used was a Vydac 218TP (C18, 5 μm, 250×4.6 mm). The mobile phases used (0.1% TFA in water containing 1% acetonitrile (solvent A) and 0.1% TFA in acetonitrile (solvent B)) were run at a gradient with a flow rate of 1.0 ml/min. Diluted PXL01 standards were applied to create calibration curves.
Samples were prepared by adding hyaluronidase solution (Hyaluronidase from Streptomyces hyalurolyticus, Sigma-Aldrich, St Louis, Mo.) with an enzyme activity of 500 units/ml to sample solutions. The mixtures were agitated for 2 h at room temperature and samples were diluted as needed with TFA in water, followed by additional mixing. The samples were centrifuged at 7000 rpm for 5 min before injection to the column.

PXL01 released from the sodium hyaluronate gel formulation (cumulative drug released) [2]: approximately 70% | solubility in sodium hyaluronate [3]: readily soluble | stability in sodium hyaluronate [3]: sufficiently stable
Structure (SMILES): CC[C@H](C)[C@H](NC(=O)[C@@H]1CSSC[C@H](NC(=O)[C@H](CCCCN)NC(=O)[C@@H](NC(=O)[C@H](C)NC(=O)[C@H](CCC(=O)O)NC(C)=O)[C@@H](C)O)C(=O)N[C@@H](Cc2ccccc2)C(=O)N[C@@H](CCC(N)=O)C(=O)N[C@@H](Cc2c[nH]c3ccccc23)C(=O)N[C@@H](CCC(N)=O)C(=O)N[C@@H](CCCNC(=N)N)C(=O)N[C@@H](CC(N)=O)C(=O)N[C@@H](CCSC)C(=O)N[C@@H](CCCNC(=N)N)C(=O)N[C@@H](CCCCN)C(=O)N[C@@H](C(C)C)C(=O)N[C@@H](CCCNC(=N)N)C(=O)NCC(=O)N2CCC[C@H]2C(=O)N2CCC[C@H]2C(=O)N[C@@H](C(C)C)C(=O)N[C@@H](CO)C(=O)N1)C(=O)N[C@@H](CCCCN)C(=O)N[C@@H](CCCNC(=N)N)C(N)=O [PXL01] (Ac-EATKCFQWQRNMRKVRGPPVSCIKR-NH2; disulfide 5-22)
adhesion formation compared with control group ([1]; 3 mg of PXL01 in water solution, single dose in connection to the surgery): No significant reduction | adhesion formation compared with control group ([1]; 3 doses of 1 mg of PXL01 in water solution (at operation, 24 and 48 h post-surgery)): marked reduction | adverse events (listlessness, peritoneal inflammation, inhibition of wound healing) ([1]; rats treated with PXL01 at any concentration): No obvious adverse events
